Assay results as given in ChEMBL document CHEMBL4823253, “Structure-Based Design of Selective LONP1 Inhibitors for Probing In Vitro Biology” (J Med Chem, 2021).
The source made the active and inactive calls. The rule behind the calls is not given here.

Legend:
20S proteasome = experiment: Inhibition of human erythrocytes 20S proteasome using QXL520-YRGITCSGRQK(5-FAM)-NH2 fluorogenic peptide as substrate preincubated for 10 mins followed by substrate addition and measured after 60 mins by HTRF assay; settings: erythrocyte
[1] = molecular target: T1, Lon protease homolog, mitochondrial (Homo sapiens, UniProt P36776); experiment: Inhibition of LONP1 (unknown origin) using QXL520-YRGITCSGRQK(5-FAM)-NH2 peptide as substrate incubated for 50 mins in presence of ATP by HTRF assay
T1 sequence (P36776 whole entry): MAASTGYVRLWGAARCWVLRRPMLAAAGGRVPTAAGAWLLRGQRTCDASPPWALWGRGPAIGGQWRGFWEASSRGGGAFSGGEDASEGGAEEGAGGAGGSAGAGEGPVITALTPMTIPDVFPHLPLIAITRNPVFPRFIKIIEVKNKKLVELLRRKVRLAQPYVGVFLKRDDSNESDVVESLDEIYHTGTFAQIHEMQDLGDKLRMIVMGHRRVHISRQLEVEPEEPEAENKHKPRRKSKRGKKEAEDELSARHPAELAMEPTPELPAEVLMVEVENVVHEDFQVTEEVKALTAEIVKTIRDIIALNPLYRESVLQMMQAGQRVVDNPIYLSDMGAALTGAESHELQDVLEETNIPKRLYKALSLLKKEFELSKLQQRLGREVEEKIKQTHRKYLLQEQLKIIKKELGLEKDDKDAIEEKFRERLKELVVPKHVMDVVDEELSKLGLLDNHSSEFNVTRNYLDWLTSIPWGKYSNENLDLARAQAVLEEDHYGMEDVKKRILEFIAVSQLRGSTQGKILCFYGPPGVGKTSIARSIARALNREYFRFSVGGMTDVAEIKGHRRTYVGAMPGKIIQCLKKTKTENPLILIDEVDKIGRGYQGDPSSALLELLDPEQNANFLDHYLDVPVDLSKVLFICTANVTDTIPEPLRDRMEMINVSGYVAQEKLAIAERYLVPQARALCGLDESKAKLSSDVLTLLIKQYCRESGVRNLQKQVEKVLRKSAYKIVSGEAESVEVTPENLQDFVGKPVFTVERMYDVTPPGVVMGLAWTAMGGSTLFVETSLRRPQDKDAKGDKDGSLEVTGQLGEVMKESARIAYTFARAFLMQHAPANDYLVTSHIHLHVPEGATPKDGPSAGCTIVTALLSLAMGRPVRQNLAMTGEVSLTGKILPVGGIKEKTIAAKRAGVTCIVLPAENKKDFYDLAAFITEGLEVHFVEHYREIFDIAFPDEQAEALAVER

[2] = molecular target: T2, Cobalamin trafficking protein CblD (Homo sapiens) (UniProt Q9H3L0); experiment: Binding affinity to MMADHC in human LONP1 dependent Calu-6 cells assessed as increase in protein abundance by HTRF assay relative to control
T2 sequence (whole entry): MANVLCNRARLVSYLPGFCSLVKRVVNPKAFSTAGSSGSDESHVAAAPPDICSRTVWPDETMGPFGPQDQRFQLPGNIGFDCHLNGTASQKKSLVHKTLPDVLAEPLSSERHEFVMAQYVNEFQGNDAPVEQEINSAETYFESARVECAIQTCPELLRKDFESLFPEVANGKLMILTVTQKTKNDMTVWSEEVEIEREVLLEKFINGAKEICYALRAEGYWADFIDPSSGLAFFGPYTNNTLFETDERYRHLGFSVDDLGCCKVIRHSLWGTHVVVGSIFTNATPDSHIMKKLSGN

[3] = molecular target: T2, Cobalamin trafficking protein CblD (Homo sapiens); experiment: Binding affinity to MMADHC in human LONP1 dependent NCI-H1944 cells assessed as increase in protein abundance at 10 uM by WES analysis relative to control; type: cell-based
[4] = molecular target: T2, Cobalamin trafficking protein CblD (Homo sapiens); experiment: Binding affinity to MMADHC in human LONP1 dependent NCI-H1568 cells assessed as increase in protein abundance relative to control; type: cell-based
[5] = molecular target: T2, Cobalamin trafficking protein CblD (Homo sapiens); experiment: Binding affinity to MMADHC in human Flp-In-T-REx-293 stably expressing 3X-FLAG-tagged LOPN1 assessed as increase in protein abundance by mass spectrometric analysis

Row | IC50 (20S proteasome) [nM] | IC50 [1] [nM] | fold change (FC) [2] | fold change (FC) [3] | fold change (FC) [4] | Activity [5] | Compound
1 | > 10000 | 408 | – | – | – | – | CC[C@@H](NC(=O)c1cnccn1)C(=O)N[C@@H](CC(C)C)B(O)O
2 | 679 | 109 | – | – | – | – | O=C(N[C@H](Cc1ccccc1)C(=O)N[C@@H](Cc1ccccc1)B(O)O)c1cnccn1
3 | > 10000 | 187 | – | – | – | – | CCC[C@@H](NC(=O)c1cnccn1)C(=O)N[C@@H](CC(C)C)B(O)O
4 | 262 | 34 | – | – | – | – | O=C(N[C@H](Cc1ccccc1)C(=O)N[C@@H](CCc1ccccc1)B(O)O)c1cnccn1
5 | > 10000 | 556 | – | – | – | – | CCC[C@@H](NC(=O)c1cnccn1)C(=O)N[C@@H](Cc1ccccc1)B(O)O
6 | – | 6200 | – | – | – | – | CC(C)C[C@H](NC(=O)C(C)(C)NC(=O)c1cnccn1)B(O)O
7 | > 10000 | 38 | – | – | – | – | CCCC[C@H](NC(=O)[C@@H](CCC)NC(=O)c1cnccn1)B(O)O
8 | 1040 | 65 | – | – | – | – | CC(C)CCC[C@H](NC(=O)[C@@H](Cc1ccccc1)NC(=O)c1cnccn1)B(O)O
9 | > 10000 | 17 | – | – | – | – | CCC[C@@H](NC(=O)c1cnccn1)C(=O)N[C@@H](CCCc1ccccc1)B(O)O
10 | 2680 | 433 | – | – | – | – | CC(C)C[C@H](NC(=O)[C@@H](C)NC(=O)c1cnccn1)B(O)O
11 | > 10000 | 93 | – | – | – | – | CCCC[C@@H](NC(=O)c1cnccn1)C(=O)N[C@@H](CC(C)C)B(O)O
12 | > 10000 | 92 | – | – | – | – | CCC[C@@H](NC(=O)c1cnccn1)C(=O)N[C@@H](CCc1ccccc1)B(O)O
13 | 843 | 137 | – | – | – | – | CC(C)C[C@H](NC(=O)[C@@H](CC1CCCCC1)NC(=O)c1cnccn1)B(O)O
14 | > 10000 | 59 | 30 | 30 | 30 | Active | CCC[C@@H](NC(=O)c1oc(C)nc1C)C(=O)N[C@@H](CCCc1ccccc1)B(O)O
15 | > 10000 | 2850 | – | – | – | – | CC(C)C[C@H](NC(=O)[C@H](NC(=O)c1cnccn1)C(C)(C)C)B(O)O
16 | 3970 | 546 | – | – | – | – | CC(C)C[C@H](NC(=O)[C@H](NC(=O)c1cnccn1)C(C)C)B(O)O
17 | > 10000 | 136 | – | – | – | – | CCC[C@@H](NC(=O)c1cnccn1)C(=O)N[C@@H](CC1CCCCC1)B(O)O
18 | 541 | 92 | – | – | – | – | O=C(N[C@H](Cc1ccccc1)C(=O)N[C@@H](CC1CCCCC1)B(O)O)c1cnccn1
19 | 1940 | 77 | – | – | – | – | O=C(N[C@H](Cc1ccccc1)C(=O)N[C@@H](CCCCCBr)B(O)O)c1cnccn1
20 | 259 | 18 | – | – | – | – | O=C(N[C@H](Cc1ccccc1)C(=O)N[C@@H](CCCc1ccccc1)B(O)O)c1cnccn1
